Assay results: PubChem BioAssay AID256 (DTP/NCI, 2004)
Several values for one entry are separate records, joined by “and”; a condition that tells them apart may be missing. Equal values may be shown once. Toxic doses and inconclusive results are not listed.

Tested on: CD2F1 mice, L1210 leukemia ip, survival T/C
Assay: NCI In Vivo Anticancer Drug Screen. Data for tumor model L1210 Leukemia (intraperitoneal) in CD2F1 (CDF1) mice
Conditions: higher = longer survival
In short: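 Transplantable tumor in mice; compound-treated vs vehicle-treated groups. Read-out = treated/control ratio of the measured endpoint.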

[1] = endpoint: mean survival time, dose: 12.5 mg/kg/injection, schedule: Q01DX009 (ip), vehicle: saline with Tween-80
[2] = endpoint: mean survival time, dose: 25.0 mg/kg/injection, schedule: Q01DX009 (ip), vehicle: saline with Tween-80
[3] = endpoint: mean survival time, dose: 50.0 mg/kg/injection, schedule: Q01DX009 (ip), vehicle: saline with Tween-80
[4] = endpoint: mean survival time, dose: 50.0 mg/kg/injection, schedule: Q04DX002 (ip), vehicle: saline with Tween-80
[5] = endpoint: mean survival time, dose: 100.0 mg/kg/injection, schedule: Q04DX002 (ip), vehicle: saline with Tween-80
[6] = endpoint: mean survival time, dose: 100.0 mg/kg/injection, schedule: Q01DX001 (ip), vehicle: saline
[7] = endpoint: mean survival time, dose: 200.0 mg/kg/injection, schedule: Q01DX001 (ip), vehicle: saline
[8] = endpoint: mean survival time, dose: 400.0 mg/kg/injection, schedule: Q01DX001 (ip), vehicle: saline
[9] = endpoint: mean survival time, dose: 100.0 mg/kg/injection, schedule: Q04DX003 (ip), vehicle: saline with Tween-80
[10] = endpoint: mean survival time, dose: 200.0 mg/kg/injection, schedule: Q04DX002 (ip), vehicle: saline with Tween-80
[11] = endpoint: mean survival time, dose: 200.0 mg/kg/injection, schedule: Q04DX003 (ip), vehicle: saline with Tween-80
[12] = endpoint: mean survival time, dose: 100.0 mg/kg/injection, schedule: Q01DX001 (ip), vehicle: saline with Tween-80
[13] = endpoint: mean survival time, dose: 200.0 mg/kg/injection, schedule: Q01DX001 (ip), vehicle: saline with Tween-80
[14] = endpoint: mean survival time, dose: 100.0 mg/kg/injection, schedule: Q01DX009 (ip), vehicle: saline with Tween-80
[15] = endpoint: mean survival time, dose: 200.0 mg/kg/injection, schedule: Q01DX009 (ip), vehicle: saline with Tween-80
[16] = endpoint: mean survival time, dose: 150.0 mg/kg/injection, schedule: Q01DX001 (ip), vehicle: saline
[17] = endpoint: mean survival time, dose: 100.0 mg/kg/injection, schedule: Q04DX003 (ip), vehicle: Klucel (hydroxypropylcellulose) (HPC)
[18] = endpoint: mean survival time, dose: 50.0 mg/kg/injection, schedule: Q01DX009 (ip), vehicle: saline
[19] = endpoint: mean survival time, dose: 100.0 mg/kg/injection, schedule: Q01DX009 (ip), vehicle: saline
[20] = endpoint: mean survival time, dose: 200.0 mg/kg/injection, schedule: Q01DX009 (ip), vehicle: saline

## CSc1ccc2c(c1)C(N1CCN(C)CC1)Cc1ccccc1S2 (configuration not stated)
endpoint: mean survival time, dose: 1.56 mg/kg/injection, schedule: Q01DX009 (ip), vehicle: saline with Tween-80
  T/C: 112 % of control
endpoint: mean survival time, dose: 3.12 mg/kg/injection, schedule: Q01DX009 (ip), vehicle: saline with Tween-80
  T/C: 118 % of control and 121 % of control
endpoint: mean survival time, dose: 6.25 mg/kg/injection, schedule: Q01DX009 (ip), vehicle: saline with Tween-80
  T/C: 116 % of control and 122 % of control
[1]
  T/C: 115 % of control and 120 % of control
[2]
  T/C: 122 % of control and 108 % of control
[3]
  T/C: 114 % of control

## CCc1cccc(CC)c1NC(=S)NN
endpoint: mean survival time, dose: 25.0 mg/kg/injection, schedule: Q04DX002 (ip), vehicle: saline with Tween-80
  T/C: 104 % of control
[4]
  T/C: 96 % of control
[5]
  T/C: 96 % of control

## CC1=CC(=O)CC(C)C2CC(C(C)C)CC12 (configuration not stated)
[6]
  T/C: 101 % of control
[7]
  T/C: 100 % of control
[8]
  T/C: 105 % of control

## CC(C)COC(=N)c1ccccc1C1(O)CCCCC1
[4]
  T/C: 91 % of control
[5]
  T/C: 88 % of control
[9]
  T/C: 98 % of control
[10]
  T/C: 100 % of control
[11]
  T/C: 92 % of control

## O=c1nc(NCc2cccs2)ccn1C1OC(CO)C(O)C1O (configuration not stated)
endpoint: median survival time, dose: 12.5 mg/kg/injection, schedule: Q01DX005 (ip), vehicle: water
  T/C: 104 % of control
endpoint: median survival time, dose: 25.0 mg/kg/injection, schedule: Q01DX005 (ip), vehicle: water
  T/C: 103 % of control
endpoint: median survival time, dose: 50.0 mg/kg/injection, schedule: Q01DX005 (ip), vehicle: water
  T/C: 103 % of control
endpoint: median survival time, dose: 100.0 mg/kg/injection, schedule: Q01DX005 (ip), vehicle: water
  T/C: 102 % of control
endpoint: median survival time, dose: 200.0 mg/kg/injection, schedule: Q01DX005 (ip), vehicle: water
  T/C: 102 % of control

## S=C(Cc1ccccc1)N1CCOCC1
[12]
  T/C: 98 % of control
[13]
  T/C: 102 % of control
endpoint: mean survival time, dose: 300.0 mg/kg/injection, schedule: Q01DX001 (ip), vehicle: saline with Tween-80
  T/C: 101 % of control

## CC/C=C\CC1OCCO1
[3]
  T/C: 95 % of control
[14]
  T/C: 92 % of control
[15]
  T/C: 95 % of control

## COC1OC(COC(=O)c2ccc([N+](=O)[O-])cc2)C(SC#N)C1O (configuration not stated)
[16]
  T/C: 93 % of control

## CCOC(=O)c1nc2c(n(O)c1=N)CCC/C2=N\O
[17]
  T/C: 95 % of control
endpoint: mean survival time, dose: 200.0 mg/kg/injection, schedule: Q04DX003 (ip), vehicle: Klucel (hydroxypropylcellulose) (HPC)
  T/C: 102 % of control
endpoint: mean survival time, dose: 400.0 mg/kg/injection, schedule: Q04DX003 (ip), vehicle: Klucel (hydroxypropylcellulose) (HPC)
  T/C: 91 % of control

## Cc1ccc(N)nc1[N+](=O)[O-]
endpoint: mean survival time, dose: 100.0 mg/kg/injection, schedule: Q01DX009 (ip), vehicle: other
  T/C: 100 % of control
endpoint: mean survival time, dose: 100.0 mg/kg/injection, schedule: Q04DX003 (ip), vehicle: other
  T/C: 102 % of control
endpoint: mean survival time, dose: 200.0 mg/kg/injection, schedule: Q01DX009 (ip), vehicle: other
  T/C: 96 % of control
endpoint: mean survival time, dose: 200.0 mg/kg/injection, schedule: Q04DX003 (ip), vehicle: other
  T/C: 96 % of control
endpoint: mean survival time, dose: 400.0 mg/kg/injection, schedule: Q01DX009 (ip), vehicle: other
  T/C: 100 % of control
endpoint: mean survival time, dose: 400.0 mg/kg/injection, schedule: Q04DX003 (ip), vehicle: other
  T/C: 96 % of control

## CCOC(=O)C(C(C)=O)C1=C(Cl)C(=O)c2ccccc2C1=O (configuration not stated)
endpoint: mean survival time, dose: 75.0 mg/kg/injection, schedule: Q01DX001 (ip), vehicle: other
  T/C: 95 % of control
endpoint: mean survival time, dose: 150.0 mg/kg/injection, schedule: Q01DX001 (ip), vehicle: other
  T/C: 94 % of control
endpoint: mean survival time, dose: 300.0 mg/kg/injection, schedule: Q01DX001 (ip), vehicle: other
  T/C: 92 % of control

## O=Cc1ccc[nH]1
[6]
  T/C: 94 % of control
endpoint: mean survival time, dose: 100.0 mg/kg/injection, schedule: Q04DX003 (ip), vehicle: saline
  T/C: 104 % of control
[7]
  T/C: 100 % of control
endpoint: mean survival time, dose: 200.0 mg/kg/injection, schedule: Q04DX003 (ip), vehicle: saline
  T/C: 101 % of control
[8]
  T/C: 100 % of control
endpoint: mean survival time, dose: 400.0 mg/kg/injection, schedule: Q04DX003 (ip), vehicle: saline
  T/C: 108 % of control

## C=C[Si](c1ccccc1)(c1ccccc1)c1ccccc1
endpoint: mean survival time, dose: 75.0 mg/kg/injection, schedule: Q04DX003 (ip), vehicle: saline
  T/C: 95 % of control
endpoint: mean survival time, dose: 150.0 mg/kg/injection, schedule: Q04DX003 (ip), vehicle: saline
  T/C: 97 % of control
endpoint: mean survival time, dose: 300.0 mg/kg/injection, schedule: Q04DX003 (ip), vehicle: saline
  T/C: 97 % of control

## CCNCc1ccc2c(c1)OCO2
endpoint: mean survival time, dose: 75.0 mg/kg/injection, schedule: Q01DX001 (ip), vehicle: saline
  T/C: 101 % of control
[16]
  T/C: 101 % of control
endpoint: mean survival time, dose: 300.0 mg/kg/injection, schedule: Q01DX001 (ip), vehicle: saline
  T/C: 103 % of control

## O=C(NCCCl)Nc1cc(Cl)cc(Cl)c1
[2]
  T/C: 97 % of control
[3]
  T/C: 100 % of control
[14]
  T/C: 88 % of control and 96 % of control

## Cc1ccc(NC(=O)c2ccc(Cl)cc2)c(Br)c1
[9]
  T/C: 103 % of control
[11]
  T/C: 105 % of control
endpoint: mean survival time, dose: 400.0 mg/kg/injection, schedule: Q04DX003 (ip), vehicle: saline with Tween-80
  T/C: 97 % of control

## O=C(Nc1ccc(F)cc1)Nc1ccc(F)cc1
[5]
  T/C: 94 % of control
[10]
  T/C: 87 % of control

## NNC(=O)NO
[1]
  T/C: 166 % of control
[2]
  T/C: 162 % of control
[3]
  T/C: 103 % of control
[14]
  T/C: 97 % of control
[15]
  T/C: 87 % of control

## CCCCCCCCCCCCCCCCCOc1c(I)cc(I)cc1I
[12]
  T/C: 86 % of control
[13]
  T/C: 94 % of control
endpoint: mean survival time, dose: 400.0 mg/kg/injection, schedule: Q01DX001 (ip), vehicle: saline with Tween-80
  T/C: 91 % of control

## C[N+](C)(C)CSSC[N+](C)(C)C
endpoint: mean survival time, dose: 12.5 mg/kg/injection, schedule: Q04DX002 (ip), vehicle: saline
  T/C: 96 % of control
endpoint: mean survival time, dose: 25.0 mg/kg/injection, schedule: Q04DX002 (ip), vehicle: saline
  T/C: 96 % of control
endpoint: mean survival time, dose: 50.0 mg/kg/injection, schedule: Q04DX002 (ip), vehicle: saline
  T/C: 103 % of control

## NC(=O)N1c2c(nc(N)[nH]c2=O)NCC1CNc1ccc(C(=O)NC(CCC(=O)O)C(=O)O)cc1 (configuration not stated)
endpoint: mean survival time, dose: 100.0 mg/kg/injection, schedule: Q01DX001 (ip), vehicle: sodium bicarbonate
  T/C: 102 % of control
endpoint: mean survival time, dose: 200.0 mg/kg/injection, schedule: Q01DX001 (ip), vehicle: sodium bicarbonate
  T/C: 97 % of control
endpoint: mean survival time, dose: 400.0 mg/kg/injection, schedule: Q01DX001 (ip), vehicle: sodium bicarbonate
  T/C: 96 % of control

## N#CC[CH2][Sn]([Br])([Br])[CH2]CC#N
endpoint: mean survival time, dose: 0.78 mg/kg/injection, schedule: Q01DX009 (ip), vehicle: saline
  T/C: 97 % of control
endpoint: mean survival time, dose: 1.56 mg/kg/injection, schedule: Q01DX009 (ip), vehicle: saline
  T/C: 94 % of control
endpoint: mean survival time, dose: 3.12 mg/kg/injection, schedule: Q01DX009 (ip), vehicle: saline
  T/C: 92 % of control and 98 % of control
endpoint: mean survival time, dose: 6.25 mg/kg/injection, schedule: Q01DX009 (ip), vehicle: saline
  T/C: 105 % of control and 107 % of control
endpoint: mean survival time, dose: 12.5 mg/kg/injection, schedule: Q01DX009 (ip), vehicle: saline
  T/C: 94 % of control and 101 % of control and 107 % of control
endpoint: mean survival time, dose: 25.0 mg/kg/injection, schedule: Q01DX009 (ip), vehicle: saline
  T/C: 95 % of control and 97 % of control
[18]
  T/C: 89 % of control

## CC(=O)CC(OC(=O)c1cc([N+](=O)[O-])cc([N+](=O)[O-])c1)(C(F)(F)F)C(F)(F)F
[17]
  T/C: 91 % of control

## CC(C)n1c(=S)[nH]c2ccccc2c1=O
[19]
  T/C: 97 % of control
[20]
  T/C: 100 % of control
endpoint: mean survival time, dose: 400.0 mg/kg/injection, schedule: Q01DX009 (ip), vehicle: saline
  T/C: 100 % of control

## CCN(CC)CCN(CC)C(=O)C(O)(c1ccccc1)c1ccccc1
[18]
  T/C: 98 % of control
[19]
  T/C: 95 % of control
[20]
  T/C: 91 % of control

## CC(C)(O)C1OCC(C2CCC3(C)C4=CCC5C(C)(C)C(O)CCC5(C)C4CCC23C)CC1O (configuration not stated)
endpoint: mean survival time, dose: 2.5 mg/kg/injection, schedule: Q01DX009 (ip), vehicle: Klucel (hydroxypropylcellulose) (HPC)
  T/C: 94 % of control
endpoint: mean survival time, dose: 5.0 mg/kg/injection, schedule: Q01DX009 (ip), vehicle: Klucel (hydroxypropylcellulose) (HPC)
  T/C: 103 % of control
endpoint: mean survival time, dose: 10.0 mg/kg/injection, schedule: Q01DX009 (ip), vehicle: Klucel (hydroxypropylcellulose) (HPC)
  T/C: 88 % of control
